Results on 25 compounds are retold here after patent publication US6335350B1, “Acetamide and substituted acetamide-containing thiourea inhibitors of herpes viruses” (American Home Products Corporation, priority 1998, dated 2002).

In brackets after ≈: the same amount, converted by molar mass.

One experiment relates to HCMV wild-type. The experiment in a line: HCMV yield assay. Type of experiment: cell-based, human cytomegalovirus. Conditions: human foreskin fibroblasts; for IC50: Human betaherpesvirus 5, Fibroblast, read-out: IC50 Ug/ml HCMV. A digest of the protocol: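 HCMV wild-type infected human foreskin fibroblast monolayers at MOI typically 0.2 with varying compound concentrations; virus yield harvested at 3 days post-infection and titered on fibroblasts without inhibitor, plaques counted at 2 weeks. IC50 or IC90 = compound amount reducing yield titer by 50% or 90%.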

Another experiment deals with HSV-1. The experiment in a line: HSV Antiviral (ELISA) Assay. The experiment is classed as cell-based, herpes simplex virus type 1. As to conditions: Vero cells, HSV-1; for IC50: Human alphaherpesvirus 1, Vero, read-out: IC50 Ug/ml HSV. The method, boiled down: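 Vero cells in DMEM/2% FBS pretreated with compound 30 min before HSV-1 infection (MOI 0.006), then ~24 h at 37 °C. Viral gD detected by ELISA with β-galactosidase secondary and 4-methylumbelliferyl-galactoside (ex 365/em 450 nm); IC50 from fluorescence versus untreated infected cells.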

In another experiment the test system is VZV strain Ellen. In words: VZV Antiviral (ELISA) Assay. Type of experiment: cell-based, varicella-zoster virus. As to conditions: human foreskin fibroblast cells; for IC50 / inhibition at 10 µg/mL: Human alphaherpesvirus 3, Fibroblast; for IC50: read-out: IC50 Ug/ml VZV; for inhibition at 10 µg/mL: read-out: % inhibition 10 ug/ml VZV, 10 ug/ml. A digest of the protocol:
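HFF cells infected overnight with VZV Ellen at MOI <0.1, mixed with uninfected cells, were seeded with compound and grown 3 days at 37° C in DMEM/2% FBS. Viral glycoprotein II was detected by ELISA with β-galactosidase-linked secondary; IC50 from fluorescence versus no-compound wells.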

Regarding `CC(=O)Nc1ccc(NC(=S)Nc2cc(Cl)c(OCC(=O)OC(C)(C)C)c(Cl)c2)cc1` [Example 887, {4-[3-(4-Acetylamino-phenyl)-thioureido]-2,6-dichloro-phenoxy}-acetic acid tert-butyl ester], the figures for the IC50 in the experiment on HCMV wild-type, in the experiment on HSV-1 and in the experiment with VZV strain Ellen were greater than 10 mg/L, 45 mg/L (≈ 92.9 µM) and greater than 10 mg/L, respectively. The inhibition at 10 µg/mL in the experiment with VZV strain Ellen is 38%.

For `CC(=O)Nc1ccc(NC(=S)Nc2ccc(NCc3ccccc3)c(Cl)c2)cc1` [Example 241, N-{4-[3-(4-Benzylamino-3-chloro-phenyl)-thioureido]-phenyl}-acetamide], the IC50 was 2 mg/L (≈ 4.71 µM) in the experiment with HCMV wild-type, 10 mg/L (≈ 23.5 µM) with HSV-1 and greater than 10 mg/L with VZV strain Ellen. Also, the inhibition at 10 µg/mL in the experiment on VZV strain Ellen was determined as 24%.

For the compound `COc1cc(OC)c(NC(=S)Nc2cc(OC)c(NC(C)=O)cc2C)cc1Cl` [Example 285, N-{4-[3-(5-Chloro-2,4-dimethoxy-phenyl)-thioureido]-2-methoxy-5-methyl-phenyl}-acetamide], the IC50 in the experiment with HCMV wild-type is greater than 50 mg/L; with HSV-1 it was greater than 50 mg/L; with VZV strain Ellen it was greater than 10 mg/L. Besides, the inhibition at 10 µg/mL in the experiment with VZV strain Ellen amounted to 18%.

For `CC(=O)Nc1ccc(NC(=S)Nc2ccc(C#N)c(Cl)c2)cc1` [Example 899, N-{4-[3-(3-Chloro-4-cyano-phenyl)-thioureido]-phenyl}-acetamide], the values for the IC50 in the experiment on HCMV wild-type, in the experiment with HSV-1 and in the experiment on VZV strain Ellen were greater than 10 mg/L, 10 mg/L (≈ 29 µM) and greater than 10 mg/L, respectively. Moreover, in the experiment on VZV strain Ellen, the inhibition at 10 µg/mL is 7%.

For `COc1cc(OC)c(NC(=S)Nc2ccc(NC(C)=O)c(C(=O)c3ccccc3)c2)cc1Cl` [Example 292, N-{2-Benzoyl-4-[3-(5-chloro-2,4-dimethoxy-phenyl)-thioureido]-phenyl}-acetamide], the IC50 in the experiment on HCMV wild-type is greater than 10 mg/L; with HSV-1 it was greater than 50 mg/L; with VZV strain Ellen it was 13 mg/L (≈ 26.9 µM). For the same compound, the inhibition at 10 µg/mL in the experiment with VZV strain Ellen is 70%.

Regarding `COc1c(NC(=S)Nc2ccc(NC(C)=O)cc2)cc(Cl)c(C)c1Cl` [Example 876, N-{4-[3-(3,5-Dichloro-2-methoxy-4-methyl-phenyl)-thioureido]-phenyl}-acetamide], the figures for the IC50 in the experiment with HCMV wild-type and in the experiment with VZV strain Ellen were 1 mg/L (≈ 2.51 µM) and greater than 10 mg/L, respectively. In addition, the “IC50 Ug/ml HSV” value in the experiment on HSV-1 turned out to be 10 Ug/ml. For the same compound, in the experiment with VZV strain Ellen, the inhibition at 10 µg/mL was found to be 58%.

For `CC(=O)Nc1ccc(NC(=S)Nc2cc(Cl)c(OCc3ccccc3)c(Cl)c2)cc1` [Example 178, N-{4-[3-(4-Benzyloxy-3,5-dichloro-phenyl)-thioureido]-phenyl}-acetamide], the IC50 is greater than 10 mg/L with HCMV wild-type, greater than 50 mg/L with HSV-1 and greater than 10 mg/L with VZV strain Ellen. Besides, the inhibition at 10 µg/mL in the experiment with VZV strain Ellen is 32%.

As for `CC(=O)Nc1ccc(NC(=S)Nc2ccc(OC3CCN(C)CC3)c(Cl)c2)cc1` [Example 335, N-(4-{3-[3-Chloro-4-(1-methyl-piperidin-4-yloxy)-phenyl]-thioureido}-phenyl)-acetamide], the IC50 with HCMV wild-type is 30 mg/L (≈ 69.3 µM); in the experiment on HSV-1 it was 30 mg/L (≈ 69.3 µM); with VZV strain Ellen, greater than 10 mg/L. Moreover, in the experiment with VZV strain Ellen, the inhibition at 10 µg/mL stood at 8%.

For `CC(=O)Nc1ccc(NC(=S)Nc2cccc(Cl)c2Cl)cc1` [Example 926, N-{4-[3-(2,3-Dichloro-phenyl)-thioureido]-phenyl}-acetamide], the results for the IC50 with HCMV wild-type, in the experiment on HSV-1 and in the experiment with VZV strain Ellen were 10 mg/L (≈ 28.2 µM), greater than 10 mg/L and greater than 10 mg/L, respectively. In the experiment on VZV strain Ellen, the inhibition at 10 µg/mL worked out at 16%.

As to `COc1cc(OC)c(NC(=S)Nc2ccc(NC(C)=O)cc2C)cc1Cl` [Example 297, N-{4-[3-(5-Chloro-2,4-dimethoxy-phenyl)-thioureido]-3-methyl-phenyl}-acetamide], the IC50 is greater than 10 mg/L in the experiment on HCMV wild-type, 1 mg/L (≈ 2.54 µM) with HSV-1 and greater than 10 mg/L in the experiment with VZV strain Ellen. Moreover, the inhibition at 10 µg/mL with VZV strain Ellen is 23%.

As to `CC(=O)Nc1ccc(NC(=S)Nc2ccc(OCCO)c(Cl)c2)cc1` [Example 265, N-(4-{3-[3-Chloro-4-(2-hydroxy-ethoxy)-phenyl]-thioureido}-phenyl)-acetamide], the IC50 in the experiment with HCMV wild-type is greater than 50 mg/L; with HSV-1, greater than 50 mg/L; in the experiment on VZV strain Ellen, greater than 10 mg/L. For the same compound, the inhibition at 10 µg/mL with VZV strain Ellen was 20%.

For `COc1ccccc1NC(=S)Nc1ccc(NC(C)=O)cc1` [Example 105, N-{4-[3-(2-Methoxy-phenyl)-thioureido]-phenyl}-acetamide], the values for the IC50 in the experiment on HCMV wild-type, in the experiment with HSV-1 and with VZV strain Ellen were greater than 50 mg/L, greater than 50 mg/L and greater than 10 mg/L, respectively. Also, in the experiment with VZV strain Ellen, the inhibition at 10 µg/mL was found to be 32%.

Take `COc1cc(OCc2ccccc2)c(Cl)cc1NC(=S)Nc1ccc(NC(C)=O)cc1` [Example 836, N-{4-[3-(4-Benzyloxy-5-chloro-2-methoxy-phenyl)-thioureido]-phenyl}-acetamide]: the IC50 with HCMV wild-type was greater than 10 mg/L; in the experiment on HSV-1 it was 8 mg/L (≈ 17.5 µM); in the experiment with VZV strain Ellen, 2.5 mg/L (≈ 5.48 µM). In the experiment with VZV strain Ellen, the inhibition at 10 µg/mL amounted to 92%.

For `CC(=O)Nc1ccc(NC(=S)Nc2ccc(OC3CCCCC3)c(Cl)c2)cc1` [Example 345, N-{4-[3-(3-Chloro-4-cyclohexyloxy-phenyl)-thioureido]-phenyl}-acetamide], the IC50 in the experiment with HCMV wild-type, in the experiment on HSV-1 and in the experiment on VZV strain Ellen was greater than 10 mg/L each time. Also, in the experiment with VZV strain Ellen, the inhibition at 10 µg/mL was determined as 30%.

As for `CC(=O)Nc1ccc(NC(=S)Nc2cc(Cl)ccc2Cl)cc1` [Example 930, N-{4-[3-(2,5-Dichloro-phenyl)-thioureido]-phenyl}-acetamide], the IC50 was greater than 10 mg/L in the experiment on HCMV wild-type, 10 mg/L (≈ 28.2 µM) with HSV-1 and greater than 10 mg/L in the experiment with VZV strain Ellen. In addition, the inhibition at 10 µg/mL with VZV strain Ellen turned out to be 42%.

As to `COc1cc(OC)c(NC(=S)Nc2ccc(NC(C)=O)cc2)cc1F` [Example 198, N-{4-[3-(5-Fluoro-2,4-dimethoxy-phenyl)-thioureido]-phenyl}-acetamide], the results for the IC50 in the experiment with HCMV wild-type, in the experiment on HSV-1 and in the experiment with VZV strain Ellen were greater than 50 mg/L, 9 mg/L (≈ 24.8 µM) and greater than 10 mg/L, respectively. Also, in the experiment with VZV strain Ellen, the inhibition at 10 µg/mL turned out to be 36%.

For `CC(=O)Nc1ccc(NC(=S)Nc2ccc(N(C)CC(C)C)c(Cl)c2)cc1` [Example 907, N-(4-{3-[3-Chloro-4-(isobutyl-methyl-amino)-phenyl]-thioureido}-phenyl)-acetamide], the IC50 with HCMV wild-type is 3 mg/L (≈ 7.41 µM); in the experiment with HSV-1, greater than 10 mg/L; in the experiment on VZV strain Ellen, greater than 10 mg/L. Also, the inhibition at 10 µg/mL in the experiment on VZV strain Ellen came to 19%.

For `COc1ccc(NC(=S)Nc2ccc(NC(C)=O)cc2)c(OC)c1Cl` [Example 179, N-{4-[3-(3-Chloro-2,4-dimethoxy-phenyl)-thioureido]-phenyl}-acetamide], the IC50 with HCMV wild-type is greater than 50 mg/L; in the experiment with HSV-1 it was 5 mg/L (≈ 13.2 µM); in the experiment with VZV strain Ellen, greater than 10 mg/L. Besides, the inhibition at 10 µg/mL in the experiment on VZV strain Ellen was 35%.

Regarding `CCN(CC)c1ccc(NC(=S)Nc2ccc(NC(C)=O)cc2)cc1Cl` [Example 202, N-{4-[3-(3-Chloro-4-diethylamino-phenyl)-thioureido]-phenyl}-acetamide], the IC50 with HCMV wild-type is greater than 10 mg/L; in the experiment with HSV-1, 3 mg/L (≈ 7.67 µM); in the experiment with VZV strain Ellen, greater than 10 mg/L. The inhibition at 10 µg/mL in the experiment on VZV strain Ellen is 18%.

For `COc1cc(N2CCCCC2)c(NC(=S)Nc2ccc(NC(C)=O)cc2)cc1Cl` [Example 229, N-{4-[3-(5-Chloro-4-methoxy-2-piperidin-1-yl-phenyl)-thioureido]-phenyl}-acetamide], the IC50 was 7 mg/L (≈ 16.2 µM) in the experiment with HCMV wild-type, 15 mg/L (≈ 34.6 µM) in the experiment with HSV-1 and greater than 10 mg/L with VZV strain Ellen. Further, in the experiment with VZV strain Ellen, the inhibition at 10 µg/mL stood at 35%.

With `COc1ccc(NC(=S)Nc2ccc(NC(C)=O)cc2)cc1` [Example 104, N-{4-[3-(4-Methoxy-phenyl)-thioureido]-phenyl}-acetamide], the figures for the IC50 in the experiment with HCMV wild-type, in the experiment on HSV-1 and in the experiment with VZV strain Ellen were greater than 50 mg/L, greater than 50 mg/L and greater than 10 mg/L, respectively. In addition, the inhibition at 10 µg/mL in the experiment with VZV strain Ellen turned out to be 8%.

As for `CC(=O)Nc1ccc(NC(=S)Nc2ccc(N(C)CCN(C)C)c(Cl)c2)cc1` [Example 300], in the experiment with HCMV wild-type, the “IC50 Ug/ml HCMV” value came to 1.5 Ug/ml. For the same compound, the “IC50 Ug/ml HSV” value in the experiment on HSV-1 was greater than 50 Ug/ml. Besides, in the experiment with VZV strain Ellen (10 ug/ml), the “% inhibition 10 ug/ml VZV” value is recorded as 23%. The “IC50 Ug/ml VZV” value with VZV strain Ellen was greater than 10 Ug/ml.

Regarding `CC(=O)Nc1ccc(NC(=S)Nc2cc(Cl)cc(Cl)c2)cc1` [Example 933, N-{4-[3-(3,5-Dichloro-phenyl)-thioureido]-phenyl}-acetamide], the IC50 with HCMV wild-type was 1.2 mg/L (≈ 3.39 µM); with HSV-1 it was greater than 10 mg/L; in the experiment with VZV strain Ellen, greater than 10 mg/L. Also, the inhibition at 10 µg/mL with VZV strain Ellen amounted to 21%.

As for `CC(=O)Nc1ccc(NC(=S)Nc2cc(Cl)ccc2O)cc1` [Example 126, N-{4-[3-(5-Chloro-2-hydroxy-phenyl)-thioureido]-phenyl}-acetamide], the values for the IC50 with HCMV wild-type, in the experiment with HSV-1 and in the experiment with VZV strain Ellen were 20 mg/L (≈ 59.6 µM), 30 mg/L (≈ 89.3 µM) and greater than 10 mg/L, respectively. Also, the inhibition at 10 µg/mL in the experiment with VZV strain Ellen stood at 23%.

In the case of `CC(=O)Nc1ccc(NC(=S)Nc2ccc(Br)c(Cl)c2)cc1` [Example 904, N-{4-[3-(4-Bromo-3-chloro-phenyl)-thioureido]-phenyl}-acetamide], the IC50 is 1 mg/L (≈ 2.51 µM) with HCMV wild-type, 4 mg/L (≈ 10 µM) in the experiment on HSV-1 and greater than 10 mg/L with VZV strain Ellen. In the experiment on VZV strain Ellen, the inhibition at 10 µg/mL was 26%.
